In one experiment the test system is SKOV3 cells. The experiment can be described thus: Cell viability assay (PrestoBlue) in SKOV3 cells. Type of experiment: cell-based, human. To be noted: SKOV3, 5, 10 or 20 μM bestatin vs DMSO (FIG. 6F).
Another experiment relates to OVCAR8 cells. The experiment can be described thus: Cell viability assay (PrestoBlue) in OVCAR8 cells. Format: cell-based, human. To be noted: OVCAR8, 5, 10 or 20 μM bestatin vs DMSO (FIG. 6F). On the procedure:
Cell Viability Assay: OVCAR8 cells were transduced with a lentivirus expressing non-silencing (NS) or CD24 shRNA (Table 1) and analyzed for cell viability using PrestoBlue Cell Viability Reagent (Invitrogen™, Cat #A13261) as per the manufacturer's instructions, and relative cell growth was determined. […]

Another experiment deals with OVCAR8-GFP-Luc cells. In words: Intraperitoneal OVCAR8 xenograft in NSG mice (bioluminescence imaging, ascites, in vivo phagocytosis). As for the experimental part:
Animal Experiments: All mouse studies were performed in accordance with the Guide for the Care and Use of Laboratory Animals from NIH, and a protocol (202000157) approved by the UMass Chan Medical School Institutional Animal Care and Use Committee (IACUC). Female NSG mice (n=3 per group), 6-7 weeks of age, were injected intraperitoneally with 4×10^6 OVCAR8/EmGFP-luc cells or OVCAR8-ΔGPAA1/EmGFP-luc cells. Tumors were analyzed using bioluminescence imaging beginning 7 days post-engraftment and continuing every 7 days until day 28. Mice were injected intraperitoneally with firefly D-luciferin at 140 mg/kg in PBS and images were acquired 10 min after luciferin injection using an IVIS Spectrum (Perkin Elmer). Total flux was quantified using Living Image 4.0 software (IVIS Imaging Systems).
For macrophage depletion experiments, 200 μl of clodronate liposomes (Liposoma) was administered intraperitoneally every 4 days for 16 days before tumor implantation, followed by injection of 100 μl of clodronate liposomes every 4 days. Depletion of […] was verified by flow cytometry analysis peritoneal lavage using an APC anti-mouse F4/80 antibody (BioLegend, Cat #123116, clone BM8, 1:50 dilution).
[…] Tumors were analyzed by in vivo bioluminescence imaging as described above.
In vivo Phagocytosis Assay: An in vivo phagocytosis assay was performed as described previously (Barkal et al., Nature 2019, 572(7769):392-396). Mice were implanted with 4×10^6 OVCAR8/EmGFP-luc cells as described above and 7 days later bestatin (100 mg/kg) was administered daily by intraperitoneal injection. After 10 days of bestatin treatment, peritoneal ascites was harvested. Single-cell suspensions of ascitic cells were blocked using TruStain FcX (anti-mouse CD16/32 antibody (BioLegend, Cat #101320) for 10 min at room temperature and then stained with an APC anti-mouse F4/80 antibody (BioLegend, Cat #123116, clone BM8, 1:50 dilution) for 30 min on ice in the dark. The percentage of cells undergoing phagocytosis was calculated as the percentage of F4/80+ EmGFP+ double-positive cells in the population.

Experiment [1] relates to CD24 cell surface expression in SKOV3 cells. In words: CD24 flow cytometry analysis in SKOV3 cells. Format: cell-based, human. Particulars: 3 days, bestatin 10 or 20 μM, tosedostat 5 or 10 μM, vs DMSO. As for the experimental part:
Flow Cytometry Analysis: For cell surface protein staining, 1×10^5-1×10^6 cells were first incubated with Fc receptor blocking solution, Human TruStain FcXTM (BioLegend, Cat #422301) for 10 minutes at room temperature. Cells were washed once in FACS buffer (1×PBS, 1.0% bovine serum albumin (BSA) (Sigma) and 0.2% sodium azide (Sigma), and then incubated with antibodies (given below) for 30 minutes at 4° C. in the dark. Cells were also stained with 7-AAD (Biolegend, Cat #420404) for dead cell exclusion, and flow cytometry analysis was performed using a Bio-Rad ZE5 Cell Analyzer. Following antibodies used in this study (all antibodies were used at 1:50 dilution unless otherwise noted): APC anti-human CD24 (BioLegend, Cat #311118, clone ML5), PE anti-human CD24 (eBioscience, Cat #12-0247-42, clone SN3), APC anti-human CD47 (BioLegend, Cat #323124, clone CC2C6), APC anti-human § 2-microglobulin (BioLegend, Cat #395711, clone […]), PE anti-human HLA-A2 (MHC-class I) (BioLegend, Cat #343305, clone BB7.2), APC anti-human CD11b (BioLegend, Cat #982604, clone ICRF44), APC anti-mouse F4/80 antibody (BioLegend, Cat #123116, clone BM8), APC-streptavidin (Thermo Fisher Scientific, Cat #SA1005, 1:100 dilution), PE anti-Calreticulin (Invitrogen, Catalog #MA5-15382, 1:200 dilution). […]
(In flow cytometry, cells or beads pass a laser one at a time.)

Two compounds from patent US20260209777A1, “TARGETING GLYCOSYLPHOSPHATIDYLINOSITOL (GPI) PATHWAY PROTEINS TO TREAT OVARIAN CANCER” (UNIVERSITY OF MASSACHUSETTS, priority 2023, published 2026) can be followed below.

The structures appear in SMILES notation.

On to `CC(C)C[C@H](NC(=O)[C@@H](O)[C@H](N)Cc1ccccc1)C(=O)O` [bestatin], for which the cell viability entry in the experiment on SKOV3 cells and in the experiment on OVCAR8 cells was “no effect” throughout. In addition, the “tumor growth (total flux, in vivo bioluminescence imaging)” value with OVCAR8-GFP-Luc cells (NSG mice, IP OVCAR8-GFP-Luc, bestatin 100 mg/kg/d IP vs vehicle (FIG. 10C)) is “significantly reduced”. Moreover, the “GFP+F4/80+ double-positive cells in ascites (in vivo phagocytosis)” value with OVCAR8-GFP-Luc cells (bestatin 100 mg/kg daily IP, 10 days, vs vehicle (FIG. 10E)) is on record as “increase”. Further, in the experiment with OVCAR8-GFP-Luc cells (bestatin 100 mg/kg/d IP, 10 days of treatment, vs vehicle (FIG. 10D)), the ascites volume entry was “significantly reduced”.
Take `CC(C)C[C@@H](C(=O)N[C@H](C(=O)OC1CCCC1)c1ccccc1)[C@H](O)C(=O)NO` [tosedostat]: the “CD24 cell surface expression (MFI)” value in experiment [1] is “reduced”.
